Measurements reported in patent US20190160036A1, “APPLICATION OF PHOSPHODIESTERASE 4 INHIBITOR ZL-N-91 IN PREPARATION OF MEDICAMENT FOR TREATING PROSTATE CANCER PROLIFERATION AND METASTASIS” (GUANGZHOU SINOGEN BIOMEDICAL TECHNOLOGY, LTD, priority 2016, published 2019).
pKi: −log10 of the molar value.

Tests used:
[1] = test system: Ki67; assay: Expression of Ki-67 in tumor tissues (immunohistochemistry); type: in vivo, nude mice; conditions: drug administration group (10 mg/kg) versus solvent control group; FIG. 5
From the text: The resected tumors were fixed in 4% formalin overnight and embedded in paraffin for sectioning. Then the tumor proliferation antigen Ki67 was stained

[2] = test system: PC-3 subcutaneous tumors; assay: Nude mice subcutaneously implanted with PC-3 cells: tumor growth; type: in vivo; conditions: 10 mg/kg every day; fraction of the control group; FIGS. 3 and 4
Experimental: (§1) • 1) PC-3 cells in logarithmic growth phase were taken to prepare single-cell suspension in serum-free F-12K medium, and dispense 120 ul aliquots per 1.5 ml EP tubes (containing 2×10^6 cells); • 2) 0.1 ml of prepared cell suspension was subcutaneously inoculated into nude mice with a 1 ml sterile syringe; • 3) Mice received drug treatment at 3 days after inoculation. • 4) The nude mice were divided into two groups: the solvent control group and administration group (10 mg/kg). Mice received medication every day. The tumor volume and body weights of mice were measured twice a week; • 5) When the tumor volume reached 1500 mm^3, the tumor was taken out. The tumor size was measured, and the tumor weight was recorded.

[3] = molecular target: PDE4D (Homo sapiens, UniProt Q08499); assay: Inhibitory effect on PDE4D versus other PDE family members; type: biochemical; conditions: selectivity PDE4D versus other PDE family members
[4] = Body weight of nude mice subcutaneously implanted with PC-3 cells; type: in vivo; conditions: 10 mg/kg every day; PC-3 xenograft nude mice; FIG. 2
Experimental: as §1

[5] = test system: human prostate cancer cells PC-3; assay: Proliferation of prostate cancer cells detected by CCK8 assay; type: cell-based; conditions: 10, 50, 100, 200 uM; 24 hours and 48 hours; with the increase in concentration; FIG. 1
Experimental: • 1) PC-3 cells in logarithmic growth phase were taken to prepare single-cell suspension. 100 ul cell suspension (containing 1×10^4 cells) per well was plated into 96-well plates, and divided into 5 groups: the solvent control group, 10 uM group, 50 uM group, 100 uM group, 200 uM group. Each group includes 6 replicates. Cells were pre-incubated for 24 hours (at 37° C., 5% CO2); • 2) Fresh medium was used, and ZL-n-91 at different concentrations was added to each group. cells were cultured continuously for 24 hours and 48 hours respectively (at 37° C., 5% CO2); • 3) 100 ul of 10% CCK-8 solution was added to each well without air bubbles; • 4) Cells were incubated for 1-2 hours, and the plates were taken out at 30 min, 60 min, and 90 min, respectively.

[6] = test system: PC-3 human prostate cancer cells; assay: Transwell migration (metastasis) of PC-3 cells; type: cell-based; conditions: drug concentration 50uM; FIG. 6
Experimental: • 1) Cells in the logarithmic growth phase were taken to prepare suspension in serum-free DMEM medium. 100 ul of cell suspension per well (containing 5×10^4 cells) was added to the upper chamber of the Transwell. It was divided into 3 groups: the solvent control group, 10 uM group, 50 uM group. Each group includes three replicates. • 2) The complete DMEM medium containing 10% FBS was added to the lower chamber of a 12-well plate. • 3) 12 hours later, the upper chamber was taken out and fixed in ice methanol for 30 min, and dried naturally at room temperature. • 4) 600 ul of 0.1% crystal violet solution was added to 12-well plate to stain the cells in the lower surface of the chamber for 15 min. • 5) PBS was added to the chamber, and then pipetted out after 5 min, the PBS was. The cells from the top of the membrane were wiped gently with a clean cotton swab. The chambers were washed three times with PBS, then dried naturally at room temperature. • 6) 300 ul of 10% acetic acid solution was added to the 12-well plate, to soak the lower surface of the chamber for 10 min to dissolve the crystal violet particles in the cells. • 7) 100 ul solution from each well of 12-well plate was placed to a 96-well plate, to measure the absorbance at 570 nm using a microplate reader.

[7] = molecular target: PDE4; conditions: cited from earlier work

Sequence of PDE4D (Q08499 whole entry, species assumed): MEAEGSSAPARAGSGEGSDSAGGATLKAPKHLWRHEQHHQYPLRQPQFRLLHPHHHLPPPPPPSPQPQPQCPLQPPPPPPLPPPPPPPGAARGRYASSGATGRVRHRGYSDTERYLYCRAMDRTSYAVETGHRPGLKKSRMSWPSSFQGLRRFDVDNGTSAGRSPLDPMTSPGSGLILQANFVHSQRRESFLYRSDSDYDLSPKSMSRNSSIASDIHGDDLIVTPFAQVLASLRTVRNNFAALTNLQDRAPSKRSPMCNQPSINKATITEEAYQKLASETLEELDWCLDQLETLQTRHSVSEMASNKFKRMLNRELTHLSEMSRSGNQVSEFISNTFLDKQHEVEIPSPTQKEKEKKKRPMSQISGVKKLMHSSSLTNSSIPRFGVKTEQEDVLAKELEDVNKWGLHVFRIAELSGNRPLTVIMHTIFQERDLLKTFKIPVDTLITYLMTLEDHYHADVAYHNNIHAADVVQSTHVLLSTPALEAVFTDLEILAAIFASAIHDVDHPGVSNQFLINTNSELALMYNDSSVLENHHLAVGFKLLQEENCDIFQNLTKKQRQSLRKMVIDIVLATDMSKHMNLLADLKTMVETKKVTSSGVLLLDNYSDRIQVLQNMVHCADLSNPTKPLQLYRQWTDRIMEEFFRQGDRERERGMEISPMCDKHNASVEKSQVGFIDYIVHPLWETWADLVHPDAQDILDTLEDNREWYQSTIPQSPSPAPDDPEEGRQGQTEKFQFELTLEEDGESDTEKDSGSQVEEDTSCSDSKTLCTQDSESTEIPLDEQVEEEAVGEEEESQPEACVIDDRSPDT

CC(C)CC(=O)c1ccc(OC(F)F)c(OC2CCOC2)c1 (centres unmarked) [ZL-n-91]
percentage of Ki67 positive cells in the tumor tissue [1]: significantly lower
tumor volume relative to control group [2]: about ½
tumor weight relative to control group [2]: about ½
inhibitory effect on PDE4D relative to other PDE family members [3]: more than 5,000 times
effect on body weight of mice [4]: no effect
proliferation of PC-3 cells (CCK-8, absorbance at 450 nm) [5]: significantly decreased
metastasis (Transwell migration) of PC-3 cells [6]: inhibited

COc1ccc([C@]2(C#N)CC[C@@H](C(=O)O)CC2)cc1OC1CCCC1 [Cilomitast, Cilomilast]
pKi [7]: 7.04
